Laboratory results taken from patent US7534818B1 (priority 2003, dated 2009).

Legend:
normal rats = test: Identification of non-toxic doses of MSC (survival, weight loss) in normal rats; type: in vivo, adult Fisher rats; details: for animals surviving treatment: 21 days
Procedure: This example describes the identification of non-toxic doses for the use of selenium. To illustrate this embodiment, different groups of adult Fisher rats were administered various doses of selenium for 21 days and survival of rats was monitored. Each group had 6 rats and each exempt group was repeated 3-4 times. […] Thus, for evaluation of the protective effect of MSC against chemotherapy induced toxicity, the dose and schedule of MSC used was 0.75 mg/rat/d up to 21 days orally.
Bladders were removed and fixed in formalin.

rat bladder = details: MSC 0.75 mg/rat/d orally; for bladder histology (hemorrhage): 24 hrs after cyclophosphamide 150 mg/kg×1 i.v., first dose 14 days before, hematoxylin-eosin sections, FIG. 2
Excerpt: Bladders were removed and fixed in formalin. Paraffin embedded sections were obtained and stained by hematoxylin-eosin staining by standard methods.

[1] = tested on: human squamous cell carcinoma of head and neck tumor xenografts (A253); test: Anti-tumor activity in A253 xenografts; type: in vivo; details: A253 xenografts in nude mice; cyclophosphamide 100 mg/kg×1, i.v., alone or in combination with MSC
rats = details: days 30 and 45 after cyclophosphamide 100 mg/kg i.v.×1; MSC 0.75 mg/rat/d×21, first dose 14 days before; FIG. 4
Procedure: Regrowth of hair was assessed at 30, 45 and 90 days post initiation of cyciophosphamide treatment.

[2] = up to 0.75 mg/rat/d×21 MSC, adult Fisher rats

| SMILES | weight loss (normal rats; 0.75 mg/rat/d MSC orally up to 21 days, Fisher rats 120-180 g, stated as less than 10% of total body weight) | animals surviving treatment (normal rats; 1 mg MSC dose, adult Fisher rats) [%] | animals surviving treatment (normal rats; 1.25 mg MSC dose, adult Fisher rats) [%] | lethality (normal rats; [2]) | toxicity (normal rats; [2]) | weight loss (normal rats; [2]) | bladder histology (hemorrhage) (rat bladder) | bladder mucosal edema (rat bladder; 4 hrs after cyclophosphamide 150 mg/kg×1 i.v., FIG. 3) | Tumor growth inhibition [1] [%] | regrowth of hair (alopecia) (rats) |
| --- | --- | --- | --- | --- | --- | --- | --- | --- | --- | --- |
| C[Se]C[C@H](N)C(=O)O [MSC, 5-methylselenocysteine] | 7.4±2.4 | 75 | 0 | no lethality | not toxic | less than 5% | no change |  |  |  |
| O=P1(N(CCCl)CCCl)NCCCO1 (centres unmarked) [cyclophosphamide] |  |  |  |  |  |  | severe hemorrhagic cystitis | acute mucosal edema | 35 | only partial recovery |
